Assay results as given in ChEMBL document CHEMBL1123675, “2,4-Diamino-5-benzylpyrimidines as antibacterial agents. 7. Analysis of the effect of 3,5-dialkyl substituent size and shape on binding to four different dihydrofolate reductase enzymes” (J Med Chem, 1987).

Tests used:
Dihydrofolate reductase [1] = molecular target: Dihydrofolate reductase (Neisseria gonorrhoeae, UniProt P04174); assay: Inhibitory activity against dihydrofolate reductase (DHFR) of Neisseria gonorrhoea; details: read-out: I50
Dihydrofolate reductase (Neisseria gonorrhoeae, UniProt P04174), sequence (P04174 whole entry): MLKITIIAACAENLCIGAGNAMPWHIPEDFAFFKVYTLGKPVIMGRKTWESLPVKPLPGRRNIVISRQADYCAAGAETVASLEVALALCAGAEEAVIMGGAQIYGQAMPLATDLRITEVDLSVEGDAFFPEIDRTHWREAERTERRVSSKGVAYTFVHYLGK

Dihydrofolate reductase [2] = molecular target: T1, Dihydrofolate reductase (Rattus norvegicus, UniProt Q920D2); assay: Inhibitory activity against dihydrofolate reductase (DHFR) from rat liver; details: read-out: I50
T1 sequence (Q920D2 whole entry): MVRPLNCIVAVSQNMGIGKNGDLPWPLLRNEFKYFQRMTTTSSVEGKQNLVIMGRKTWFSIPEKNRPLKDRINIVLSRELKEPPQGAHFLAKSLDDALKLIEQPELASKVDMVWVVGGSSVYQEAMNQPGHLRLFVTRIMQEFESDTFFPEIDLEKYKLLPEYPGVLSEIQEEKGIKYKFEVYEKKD

[3] = molecular target: T2, Dihydrofolate reductase (Rattus norvegicus) (UniProt Q920D2); assay: Inhibitory activity against dihydrofolate reductase (DHFR) of Rat liver at a concentration 10 E -6 M
T2 sequence (whole entry): T1 sequence (Q920D2 whole entry)

[4] = molecular target: Bifunctional dihydrofolate reductase-thymidylate synthase (Plasmodium berghei str. ANKA, UniProt Q27713); assay: Inhibitory activity against dihydrofolate reductase (DHFR) of Plasmodium berghei; details: read-out: I50
Bifunctional dihydrofolate reductase-thymidylate synthase, sequence (Q27713 whole entry): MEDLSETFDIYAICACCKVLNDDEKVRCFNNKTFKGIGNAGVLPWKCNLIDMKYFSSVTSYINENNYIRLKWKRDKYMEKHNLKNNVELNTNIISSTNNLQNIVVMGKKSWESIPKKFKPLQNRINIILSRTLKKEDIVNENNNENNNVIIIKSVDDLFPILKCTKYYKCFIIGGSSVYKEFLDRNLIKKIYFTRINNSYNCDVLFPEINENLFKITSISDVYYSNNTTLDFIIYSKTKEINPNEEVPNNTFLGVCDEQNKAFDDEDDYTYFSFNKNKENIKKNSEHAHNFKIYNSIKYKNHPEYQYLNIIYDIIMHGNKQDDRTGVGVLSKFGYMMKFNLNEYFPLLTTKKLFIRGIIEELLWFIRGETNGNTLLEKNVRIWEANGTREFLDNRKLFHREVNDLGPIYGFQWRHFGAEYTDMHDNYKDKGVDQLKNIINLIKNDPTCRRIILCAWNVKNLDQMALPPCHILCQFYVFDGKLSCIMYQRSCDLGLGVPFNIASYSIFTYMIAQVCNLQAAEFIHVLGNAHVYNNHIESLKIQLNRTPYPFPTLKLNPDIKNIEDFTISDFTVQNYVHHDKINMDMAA

[5] = molecular target: T2, Dihydrofolate reductase (Rattus norvegicus); assay: Inhibitory activity against dihydrofolate reductase (DHFR) of Rat liver at a concentration 2 x 10 E -5 M

IC50 (Dihydrofolate reductase [1]) [nM] | IC50 (Dihydrofolate reductase [2]) [µM] | Inhibition [3] [%] | IC50 [4] [nM] | Inhibition [5] [%] | Structure (SMILES)
350 | 39 | – | – | – | CCc1cc(Cc2cnc(N)nc2N)cc(C)c1O
3500 | 64 | – | 350 | – | CCCCCCCCCCCCOc1c(CC)cc(Cc2cnc(N)nc2N)cc1CC
28 | 16 | – | 31 | – | COc1c(I)cc(Cc2cnc(N)nc2N)cc1I
– | 35 | – | – | – | COc1cc(Cc2cnc(N)nc2N)ccc1O
155 | 58 | – | 12.1 | – | CCc1cc(Cc2cnc(N)nc2N)cc(CC)c1OC
356 | 52 | – | 35 | – | CCOc1c(CC)cc(Cc2cnc(N)nc2N)cc1CC
58 | 31 | – | 13 | – | COc1c(C(C)(C)C)cc(Cc2cnc(N)nc2N)cc1C(C)(C)C
60 | 21 | – | 20 | – | CCCc1cc(Cc2cnc(N)nc2N)cc(CCC)c1OC
319 | – | – | 42 | 0 | CCCCC(CC)COc1c(CC)cc(Cc2cnc(N)nc2N)cc1CC (centres undefined)
44 | 32 | – | 10 | – | CCCc1cc(Cc2cnc(N)nc2N)cc(CC)c1OC
64 | 8.75 | – | 10 | – | CCc1cc(Cc2cnc(N)nc2N)cc(CC)c1OCCCOc1ccccc1
390 | 370 | – | – | – | Cc1cc(Cc2cnc(N)nc2N)cc(C(C)(C)C)c1N
318 | 130 | – | – | – | Nc1ncc(Cc2cc(Cl)c(N)c(Cl)c2)c(N)n1
810 | 520 | – | – | – | COc1cc(Cc2cnc(N)nc2N)cc(OC)c1N
259 | 120 | – | – | – | Cc1cc(Cc2cnc(N)nc2N)cc(C(C)(C)C)c1O
28 | 9.9 | – | 53 | – | Nc1ncc(Cc2cc(I)c(O)c(I)c2)c(N)n1
75 | 27 | – | – | – | CCc1cc(Cc2cnc(N)nc2N)cc(C(C)CC)c1N (centres undefined)

The remaining lines, values behind:

Structure (SMILES) | IC50 (Dihydrofolate reductase [1]) [nM] | IC50 (Dihydrofolate reductase [2]) [µM] | Inhibition [3] [%] | IC50 [4] [nM] | Inhibition [5] [%]
Cc1cc(Cc2cnc(N)nc2N)cc(C)c1N | 485 | 380 | – | – | –
CCc1cc(Cc2cnc(N)nc2N)cc(CC)c1OCCO | 45 | 120 | – | – | –
COc1ccc(Cc2cnc(N)nc2N)cc1OC [DIAVERIDINE] | 530 | 86 | – | – | –
Nc1ncc(Cc2cc(I)c(OCCCOc3ccccc3)c(I)c2)c(N)n1 | 43 | 1.58 | – | – | –
CCOc1c(C)c(C)c(Cc2cnc(N)nc2N)c(C)c1C | – | – | 0 | – | –
CCc1cc(Cc2cnc(N)nc2N)cc(C)c1N | 560 | 144 | – | – | –
CCc1cc(Cc2cnc(N)nc2N)cc(C)c1OC | 310 | 83 | – | 120 | –
Nc1ncc(Cc2cc(Br)c(N)c(Br)c2)c(N)n1 | 93 | 57 | – | – | –
Cc1cc(Cc2cnc(N)nc2N)cc(C)c1O | 526 | 71 | – | – | –
CCCCOc1c(CCC)cc(Cc2cnc(N)nc2N)cc1CCC | 132 | 15 | – | 5.8 | –
Cc1cc(Cc2cnc(N)nc2N)cc(Cl)c1N | – | 160 | – | – | –
CCc1cc(Cc2cnc(N)nc2N)cc(CC)c1N | 107 | 38 | – | – | –
CCCc1cc(Cc2cnc(N)nc2N)cc(CC)c1O | 49 | 4.45 | – | 15 | –
COc1c(C)cc(Cc2cnc(N)nc2N)cc1C | 500 | 250 | – | 120 | –
CC(C)(C)c1cc(Cc2cnc(N)nc2N)cc(C(C)(C)C)c1O | 61 | 34.5 | – | 140 | –
COc1cc(Cc2cnc(N)nc2N)cc(OC)c1O [4-HYDROXYTRIMETHOPRIM] | 330 | – | – | – | –
CCOc1cc(Cc2cnc(N)nc2N)cc(OCC)c1OCC | 220 | 30 | – | 7.5 | –
CC(C)c1cc(Cc2cnc(N)nc2N)cc(C(C)C)c1N | 137 | 34 | – | – | –
Cc1cc(Cc2cnc(N)nc2N)cc(C(C)C)c1N | 260 | – | – | – | –
COc1c(C(C)C)cc(Cc2cnc(N)nc2N)cc1C(C)C | 63 | 13 | – | 23 | –
CCCc1cc(Cc2cnc(N)nc2N)cc(CCC)c1O | 20 | 2 | – | 5.7 | –
COc1cc(Cc2cnc(N)nc2N)ccc1N | – | 470 | – | – | –
CCc1cc(Cc2cnc(N)nc2N)cc(CC)c1O | 120 | 16 | – | 28 | –
CC(C)c1cc(Cc2cnc(N)nc2N)cc(C(C)C)c1O | 29 | 8.9 | – | 110 | –
COc1c(C)cc(Cc2cnc(N)nc2N)cc1C(C)(C)C | 240 | 130 | – | 77 | –
